Measurements: publication PMC9399058, “Preclinical evaluation of FAP-2286 for fibroblast activation protein targeted radionuclide imaging and therapy” (European Journal of Nuclear Medicine and Molecular Imaging, 2022)
Read-outs that look alike come from different tables or passages of the source.

Tests used:
HEK-FAP cells = experiment: Fluorescence microscopy of cellular internalization and retention in HEK-FAP cells; format: cell-based, human; settings: 5 nM for 1 h at 37 °C, then compound-free medium up to 72 h
Experimental: HEK-FAP cells were seeded on chamber slides (ibidi) and incubated with 5 nM of AF488-labeled FAP-2286 or FAPI-46 for 1 h at 37 °C. Cells were then washed and further incubated for various timepoints. Cell nuclei were stained with 1 µg/mL Hoechst 33342 dye. Lysosomes were stained using LysoTracker Deep Red (Thermo Fisher Scientific). Images were acquired by using the BZ X800E fluorescence microscope (Keyence) at 40 × magnification.
For fluorescence microscopy assay, HEK-FAP cells were seeded in Poly-D-Lysine-coated 8-well chamber slides at 1 x 10^5 cells per well and incubated for 3 days at 37°C, 5% CO2 in a humified incubator. Attached cells were incubated for 1 hour with 5 nM AF488-labeled FAP-2286 or FAPI-46 in incubation buffer at 37°C. For visualization of lysosomes and late endosomes, cells were stained with LysoTracker DeepRed (Thermo Fisher) for 30 minutes at 37 °C.
Cells were washed three times and incubation buffer was added. Following various incubation periods, cells were washed with HBSS and incubated for 5 min with 1 µg/mL Hoechst 33342 dye for nuclei counterstaining at room temperature.
Fluorescence images were acquired by using a Keyence BZ-X800E fluorescence microscope with 40x magnification.

HEK-FAP xenograft tumors = experiment: SPECT/CT biodistribution of 111In-labeled tracers in HEK-FAP tumor-bearing mice; format: in vivo, mouse; settings: every 24 h; HEK-FAP mouse tumor model; 111In-FAPI-04 (Supplementary Fig. S6)
Experimental: (§1) HEK-FAP cell line was generated using the vector pTAR to insert FAP complementary DNA by recombinase-mediated cassette exchange into the pre-tagged HEK293 cells (InSCREENeX). For in vivo HEK-FAP studies, female nude or SCID beige mice (Charles River Laboratories) were subcutaneously implanted with 5 × 10^6 HEK-FAP cells in 150 µL serum-free media:Matrigel (1:1) (Corning). For the patient-derived xenograft (PDX) efficacy study, female NMRI nu/nu mice (Janvier Labs) were subcutaneously implanted with Sarc4809 fragments (Experimental Pharmacology & Oncology Berlin-Buch). All animal experiments were carried out under licenses approved by the respective authorities and in compliance with guidelines on animal welfare.
(§2) Thirty megabecquerels (30 MBq/nmol) ^111In-FAP-2286 (n = 9) or ^111In-FAPI-04 (n = 6) was injected intravenously (IV) into HEK-FAP tumor-bearing mice and the distribution of the radiotracers was assessed using the NanoSPECT/computed tomography (CT) system (Mediso). For PET imaging, 10 MBq of ^68Ga-FAP-2286 or ^68Ga-FAPI-46 (10 MBq/nmol) was given IV into HEK-FAP tumor-bearing mice (n = 3) followed by PET/CT analysis using the nanoScan PET/CT system (Mediso). For SPECT imaging of ^177Lu-labeled FAP-2286 or ^177Lu-labeled FAPI-46, 30 MBq was administered IV (30 MBq/nmol; n = 3) and the distribution of the radiotracers was assessed using the nanoScan SPECT/CT system (Mediso).
(§3) The animal studies were conducted in different laboratories. ^111In-Imaging and efficacy studies using the HEK-FAP model and different doses of ^177Lu-FAP-2286 as well as the Sarc4809 PDX efficacy study took place at Berlin Experimental Imaging Center (BERIC, Germany). The Sarc4809 model was originally derived from a primary lesion of undifferentiated pleomorphic sarcoma. These studies were performed in either female swiss nude (Charles River Laboratories, France – ^111In-Imaging), NMRI nude (Janvier Labs, France – PDX efficacy study) or SCID beige mice (Charles River Laboratories, Germany - ^111In-Imaging). ^68Ga-Imaging and comparative studies with ^177Lu labeled FAP-2286 and FAPI-46 were performed at Minerva Imaging ApS, Denmark using female athymic nude mice (Charles River Laboratories, Germany). For all experiments animals were ordered with an age of approximately 6 weeks. Animals were allowed an acclimatization period of at least one week prior to inoculation. Animals were housed in an animal room with 12 hours light and 12 hours darkness with free access to food and water. A maximum number of 5 animals were housed in the same cage, cages were equipped with nesting material and plastic or paper houses for hiding. Each cage was labeled with study ID, group and animal numbers and test compound. For efficacy studies animals were randomized according to tumor size. Animals were checked daily for any signs of illness or abnormal behavior. Main humane endpoints were defined as tumor volumes > 1500 mm^3, tumor burden > 10% of animal weight, body weight loss >15% and tumor ulceration. When reaching one of these criteria the animal was sacrificed by cervical dislocation. All animal experiments were approved either by the Regional Office for Health and Social Affairs Berlin (LAGeSo), Germany or the National Animal Experiments Inspectorate under the Ministry of Environment and Food of Denmark.
(§4) Imaging and image analysis were performed as described. During the scan, mice were kept under isoflurane anesthesia, and body temperature was maintained under warm air. The following acquisition parameters were used for the respective imaging modality.
(§5) For quantification, VivoQuant (InviCRO) was used to draw regions of interest (ROIs) in relevant tissues, with a ROI drawn over the left ventricle of the heart to serve as blood pool surrogate. […]

[1] = SPECT/CT biodistribution and tumor dosimetry of 177Lu-labeled tracers in HEK-FAP tumor-bearing mice; format: in vivo, mouse; settings: mouse, in vivo, iv, 30 MBq IV, HEK-FAP mice; for tissue uptake at 72 h: 72 h p.i.
Experimental: as §1, §2, §3, §4, §5

HEK-FAP xenografts = experiment: as above; format: in vivo, mouse
Experimental: as §1, §2, §3, §4, §5

Sarc4809 PDX = experiment: Efficacy study in the Sarc4809 sarcoma PDX model; format: in vivo, mouse; settings: 30 MBq single IV dose, Sarc4809 mice
Experimental: as §1
A single dose of the indicated treatments was administered IV on day 0, with vehicle (saline), nonradioactive ^natLu-FAP-2286, 30 or 60 MBq ^177Lu-FAP-2286 (30 MBq/nmol and 60 MBq/nmol, respectively), or 30 MBq ^177Lu-FAPI-46 (30 MBq/nmol). Tumor length and width were measured by caliper, and tumor volume was calculated as 0.5 × (length × width^2). Tumor growth and body weight were monitored 3 times weekly. […]
Calculation of relative tumor volume. Relative tumor volume (RTV as %) is calculated according to the following formula: RTV = (Tᵢ/ T0) × 100, where Tᵢ is the tumor volume at day i and T0 is the tumor volume at day 0. […]

neoplastic lesions = test system: neoplastic lesions; set-up: method as in PMID 34168013; settings: first-in-human experience of 11 patients ref 51; cited from earlier work

## CCCCCC(=O)N[C@H]1CSCc2cc(CSCCNC(=O)CN3CCN(CC(=O)O)CCN(CC(=O)O)CCN(CC(=O)O)CC3)cc(c2)CSC[C@@H](C(=O)N[C@@H](CCCCNC(=O)c2ccc(-c3c4ccc(=N)c(S(=O)(=O)O)c-4oc4c(S(=O)(=O)O)c(N)ccc34)c(C(=O)O)c2)C(N)=O)NC(=O)[C@H](Cc2ccccc2)NC(=O)[C@H](CCC(N)=O)NC(=O)[C@H]([C@@H](C)O)NC(=O)[C@@H]2CCCN2C(=O)[C@@H]2CCCN2C1=O [AF488-FAP-2286]
HEK-FAP cells
  cellular retention by fluorescence microscopy: retained in HEK-FAP cells and secluded in endosomes out to 72 h

## N#C[C@@H]1CC(F)(F)CN1C(=O)CNC(=O)c1ccnc2ccc(OCCCN3CCN(C(=O)CN4CCN(CC(=O)O)CCN(CC(=O)O)CCN(CC(=O)O)CC4)CC3)cc12 [FAPI-04, reference compound]
HEK-FAP xenograft tumors
  tumor clearance rate: approximately 50%

## CCCCCC(=O)N[C@H]1CSCc2cc(CSCCNC(=O)CN3CCN(CC(=O)O)CCN(CC(=O)O)CCN(CC(=O)O)CC3)cc(c2)CSC[C@@H](C(=O)O)NC(=O)[C@H](Cc2ccccc2)NC(=O)[C@H](CCC(N)=O)NC(=O)[C@H]([C@@H](C)O)NC(=O)[C@@H]2CCCN2C(=O)[C@@H]2CCCN2C1=O [^177Lu-FAP-2286, metal not drawn]
[1]; 3 h after injection, read-out: kidney accumulation
  tissue uptake at 3 h: 2.2 %ID/g
[1]; 3 h p.i., n=3, read-out: tumor uptake
  tissue uptake at 3 h: 21.1 %ID/g
[1]; n=3, read-out: tumor uptake
  tissue uptake at 72 h: 16.4 %ID/g
[1]; read-out: kidney accumulation
  tissue uptake at 72 h: 0.6 %ID/g
HEK-FAP xenografts; HEK-FAP mouse model, SPECT/CT image quantification
  tumor retention: ≥ 72 h
HEK-FAP xenografts; HEK-FAP tumor self-dose
  tumor absorbed dose: 2.8 Gy/MBq
HEK-FAP xenografts; HEK-FAP tumor, calculated from SPECT/CT, extrapolated beyond 72 h
  time-integrated activity coefficient (TIAC), tumor: 11.2 MBq*h/MBq
Sarc4809 PDX
  Max. BWL, Day 2: 3%
Neoplastic lesions
  SPECT/CT biodistribution in patients: significant tumor uptake and long retention
